Activity calls are given as the source filed them.
Tests used:
[1] = molecular target: T1, Heat shock factor protein 1 (Mus musculus, UniProt P38532); assay: enhancement of HSF1-driven luciferase signal – cell-based, NIH3T3, luminescence, dose retest, confirmation (AID 435004); format: functional;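 note: stress induced by proteasome inhibitor MG132 added 30 min after compound; luciferase reporter driven by HSF1 response element in NIH3T3 cells; actives raise luminescence as potentiators of the MG132 stress response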
T1 sequence (P38532 whole entry): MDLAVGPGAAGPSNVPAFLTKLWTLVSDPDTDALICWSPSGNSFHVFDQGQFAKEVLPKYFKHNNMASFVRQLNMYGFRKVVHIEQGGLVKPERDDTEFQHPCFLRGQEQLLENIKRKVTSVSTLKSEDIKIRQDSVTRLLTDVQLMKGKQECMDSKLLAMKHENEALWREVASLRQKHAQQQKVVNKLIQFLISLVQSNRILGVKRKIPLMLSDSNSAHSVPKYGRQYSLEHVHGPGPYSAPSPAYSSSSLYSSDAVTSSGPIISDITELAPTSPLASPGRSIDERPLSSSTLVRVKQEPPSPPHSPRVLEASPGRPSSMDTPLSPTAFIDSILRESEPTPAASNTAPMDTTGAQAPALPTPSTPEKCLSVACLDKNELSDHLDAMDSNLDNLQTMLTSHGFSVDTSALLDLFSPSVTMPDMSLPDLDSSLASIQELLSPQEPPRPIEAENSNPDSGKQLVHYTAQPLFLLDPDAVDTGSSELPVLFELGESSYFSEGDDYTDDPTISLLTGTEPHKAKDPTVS

[2] = Luminescence Cell-Based Dose Retest to Confirm Inhibitors of Cancer Stem Cells. [Related pubchem assays (depositor defined):AID2717, AID2721]; format: functional; details: Homo sapiens
[3] = HEK-293T viability loss after treatment – luminescence, T-cell screen hits, cytotoxicity control for TCR NF-kB inhibitor project, dose response (AID 489026); format: functional, cell-based;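 note: cells exposed to compound about 14 hours before the viability readout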
[4] = loss of viability in HepG2 cells – cell-based, CellTiter-Glo, cherry-picked, cytotoxicity control for Shn3 inhibitor project, dose response (AID 624134); format: functional
[5] = reduction of Shn3 3'UTR-driven luciferase in osteoblasts – cell-based, Clone20 osteoblasts, firefly luciferase, cherry-picked, dose response (AID 624132); format: functional;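 note: firefly luciferase luminescence from reporter carrying the Shn3 3'UTR in osteoblasts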
[6] = non-specific 3'UTR reporter inhibition in Clone20-Shn3RL – cell-based, Renilla luciferase, cherry-picked, counter-screen for Shn3 inhibitor project, dose response (AID 624133); format: functional
[7] = molecular target: T2, Corticotropin-releasing factor receptor 2/Corticotropin-releasing factor-binding protein (Homo sapiens, UniProt P24387+Q13324); assay: Dose Response confirmation of uHTS hits for small molecule antagonists of the CRF-binding protein and CRF-R2 receptor complex.; format: functional; details: read-out: IC50_Mean
T2 sequence (Q13324 whole entry): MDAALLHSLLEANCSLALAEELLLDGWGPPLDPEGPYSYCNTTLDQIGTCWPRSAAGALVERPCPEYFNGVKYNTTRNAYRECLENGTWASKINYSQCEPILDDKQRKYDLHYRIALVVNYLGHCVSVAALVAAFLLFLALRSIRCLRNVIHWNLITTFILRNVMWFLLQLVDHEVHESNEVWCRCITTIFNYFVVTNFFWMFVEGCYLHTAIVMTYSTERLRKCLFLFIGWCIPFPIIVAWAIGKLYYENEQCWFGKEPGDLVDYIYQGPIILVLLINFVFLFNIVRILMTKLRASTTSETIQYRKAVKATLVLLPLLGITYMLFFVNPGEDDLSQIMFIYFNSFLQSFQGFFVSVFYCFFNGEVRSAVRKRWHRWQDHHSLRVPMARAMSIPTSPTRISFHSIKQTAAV
T2 sequence (P24387 whole entry): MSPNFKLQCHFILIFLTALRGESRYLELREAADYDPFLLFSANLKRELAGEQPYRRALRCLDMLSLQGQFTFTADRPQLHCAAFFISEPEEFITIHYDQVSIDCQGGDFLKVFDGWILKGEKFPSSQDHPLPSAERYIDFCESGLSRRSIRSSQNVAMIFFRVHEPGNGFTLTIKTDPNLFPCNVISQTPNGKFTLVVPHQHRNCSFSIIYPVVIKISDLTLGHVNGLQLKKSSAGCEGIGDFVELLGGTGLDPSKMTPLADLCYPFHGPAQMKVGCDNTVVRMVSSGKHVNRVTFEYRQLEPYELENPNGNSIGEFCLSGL

[8] = molecular target: T2, Corticotropin-releasing factor receptor 2/Corticotropin-releasing factor-binding protein; assay: activators of CRF receptor 2 with binding protein – uHTS hits, confirmation (AID 602473); format: functional; details: read-out: EC50_Mean
[9] = blockers of CRF-binding protein–CRF-R2 complex – cell-based, uHTS hits, 384-well, dose response (AID 651639); format: functional, Homo sapiens; details: read-out: IC50_Mean
[10] = reduced cellular PGC1a acetyl-lysine signal – cell-based, cherry-picked samples, dose response (AID 720514); format: functional;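 note: potency may reflect raised or lowered acetylation signal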
[11] = molecular target: T3, Oxysterols receptor LXR-beta (Homo sapiens, UniProt P55055); format: functional, cell-based;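 note: Cell-based luminescence dose-response assay of agonist activity at LXR, run as a confirmatory counterscreen to a daf-12 agonist screen; HEK293 cells with Gal4-LXR fusion and GAL4-driven luciferase reporter; agonist potency from rising luciferase signal of a Gal4-LXR reporter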
T3 sequence (P55055 whole entry): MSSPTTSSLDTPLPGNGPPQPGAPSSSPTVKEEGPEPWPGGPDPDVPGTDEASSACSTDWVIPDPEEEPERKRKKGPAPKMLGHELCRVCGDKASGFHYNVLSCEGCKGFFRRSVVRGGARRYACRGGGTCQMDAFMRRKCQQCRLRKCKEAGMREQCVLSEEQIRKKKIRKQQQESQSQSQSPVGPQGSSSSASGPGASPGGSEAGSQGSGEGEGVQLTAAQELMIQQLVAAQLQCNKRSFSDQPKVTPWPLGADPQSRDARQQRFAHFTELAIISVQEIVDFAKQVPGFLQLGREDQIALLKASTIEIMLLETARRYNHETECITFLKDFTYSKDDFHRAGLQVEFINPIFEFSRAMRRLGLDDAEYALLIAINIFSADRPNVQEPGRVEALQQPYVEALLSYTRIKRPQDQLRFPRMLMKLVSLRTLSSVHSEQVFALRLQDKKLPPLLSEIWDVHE

cells [12] = assay: cells
[13] = general mammalian cell viability loss – inhibitor set, cherry-pick, set 2, cytotoxicity control for miR-122 modulator project, dose response (AID 720697); format: functional, cell-based
[14] = molecular target: Glucose-6-phosphate 1-dehydrogenase (Homo sapiens, UniProt P11413); assay: inhibition of Homo sapiens G6PD, dose series – biochemical, fluorescence, selectivity assay for P. falciparum G6PD inhibitor project, dose response (AID 504792); format: functional
Sequence of Glucose-6-phosphate 1-dehydrogenase (P11413 whole entry): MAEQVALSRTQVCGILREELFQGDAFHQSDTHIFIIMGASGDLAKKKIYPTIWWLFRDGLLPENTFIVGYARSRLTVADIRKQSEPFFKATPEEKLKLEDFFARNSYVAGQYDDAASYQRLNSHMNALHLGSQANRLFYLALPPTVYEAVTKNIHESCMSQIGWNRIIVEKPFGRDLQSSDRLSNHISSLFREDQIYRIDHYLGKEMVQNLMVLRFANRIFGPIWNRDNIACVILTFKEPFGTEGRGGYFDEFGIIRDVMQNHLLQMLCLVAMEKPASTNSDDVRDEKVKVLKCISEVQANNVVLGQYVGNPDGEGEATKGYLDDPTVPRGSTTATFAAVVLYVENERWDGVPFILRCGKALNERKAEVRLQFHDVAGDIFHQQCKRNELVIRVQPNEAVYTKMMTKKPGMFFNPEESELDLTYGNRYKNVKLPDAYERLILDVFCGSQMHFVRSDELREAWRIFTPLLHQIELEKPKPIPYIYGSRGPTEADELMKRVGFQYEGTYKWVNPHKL

[15] = molecular target: T4, Nuclear receptor subfamily 0 group B member 1 (Homo sapiens, UniProt P51843); format: functional, cell-based;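 note: HEK293T cells transfected with SF-1 and DAX-1 plus StAR promoter luciferase reporter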
T4 sequence (P51843 whole entry): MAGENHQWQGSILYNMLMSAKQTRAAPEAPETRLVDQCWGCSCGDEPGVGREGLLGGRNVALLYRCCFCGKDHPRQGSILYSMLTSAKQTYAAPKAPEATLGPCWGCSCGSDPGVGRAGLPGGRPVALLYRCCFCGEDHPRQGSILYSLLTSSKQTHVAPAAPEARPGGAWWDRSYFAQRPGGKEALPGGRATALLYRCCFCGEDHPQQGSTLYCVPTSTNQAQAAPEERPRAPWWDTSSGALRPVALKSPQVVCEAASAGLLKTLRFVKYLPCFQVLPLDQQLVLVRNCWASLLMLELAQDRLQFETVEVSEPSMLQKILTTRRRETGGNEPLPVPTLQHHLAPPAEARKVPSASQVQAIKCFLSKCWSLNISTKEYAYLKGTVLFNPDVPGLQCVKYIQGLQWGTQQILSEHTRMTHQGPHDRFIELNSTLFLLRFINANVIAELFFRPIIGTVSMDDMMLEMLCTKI

cells [16] = format: functional, cell-based
cells [17] = format: functional
[18] = HepG2 cell cytotoxicity, dose response, cytotoxicity control for non-replicating M. tuberculosis project (AID 489018); format: functional; details: Mycobacterium tuberculosis
[19] = THP-1 cell cytotoxicity, dose response, cytotoxicity control for non-replicating M. tuberculosis project (AID 489025); format: functional
[20] = NIH3T3 cell viability loss – ATP luminescence, mouse fibroblasts, counter-screen, dose response (AID 2010); format: functional, cell-based;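 note: cells exposed to compound for about 90 hours before reading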
[21] = Trypanosoma cruzi growth suppression in host cells – NIH3T3 host cells, beta-gal luminescence, confirmation (AID 2044); format: functional, cell-based;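 note: intracellular parasites grown in NIH/3T3 mouse fibroblasts as host cells; luminescent beta-galactosidase reporter signal from transgenic T. cruzi replicating inside host cells; inhibitors lower the luminescence signal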
CHO = CHO cell viability loss, potency – luminescence, cytotoxicity control for TLR9-MyD88 binding inhibitor project, dose response (AID 588339); format: functional, cell-based, hamster; details: Cricetulus griseus;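 note: CHO cells stably coexpressing TLR9 and MyD88 fusions from primary screen; compound exposure lasted 48 hours before viability readout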
Beta Lactamase = Beta Lactamase (Pseudomonas aeruginosa, UniProt Q932Y6); assay: BLA reporter interference, concentration series – BLA reporter cells, FRET fluorescence, artefact control for TLR9-MyD88 binding inhibitor project, dose response (AID 588341); format: cell-based;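 note: cell based assay in CHO-K1 cells stably expressing beta-lactamase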
Sequence of Beta Lactamase (Q932Y6 whole entry): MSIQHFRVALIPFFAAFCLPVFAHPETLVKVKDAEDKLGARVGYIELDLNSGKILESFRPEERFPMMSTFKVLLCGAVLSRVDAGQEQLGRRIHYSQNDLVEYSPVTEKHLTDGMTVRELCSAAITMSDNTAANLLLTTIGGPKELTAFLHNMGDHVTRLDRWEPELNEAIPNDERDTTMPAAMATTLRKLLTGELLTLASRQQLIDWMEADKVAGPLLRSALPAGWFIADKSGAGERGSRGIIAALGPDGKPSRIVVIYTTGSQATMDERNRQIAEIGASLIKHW

For NC(=O)CC(NC(=O)c1ccc(Br)cc1)c1ccc(N2CCCCCC2)c([N+](=O)[O-])c1 (stereo unspecified), which EC50 [1] is on record?
Its EC50 is 38.3 µM (active).

And the AC50 [2]?
Its AC50 is 15.4 µM (active).

And the IC50 [3]?
The IC50 was > 80 µM (inactive).

And the AC50 [4]?
Its AC50 is > 70 µM (inactive).

And the AC50 [5]?
The AC50 was 7.66 µM (active).

And the AC50 [6]?
The AC50 was 26.6 µM (active).

Which IC50 [7] does the source give for Clc1ccc(Cl)c(Oc2ccc(Oc3nc(Cl)ccc3Cl)cc2)n1 here?
The IC50 was 0.727 µM (active).

And the EC50 [8]?
The EC50 was > 53 µM (inactive).

And the IC50 [9]?
Its IC50 is 11.4 µM (active).

Which AC50 [10] does the source give for COc1ccccc1C1c2c(C)nn(-c3ccccc3)c2NC(=O)C1NC(=O)c1ccccc1 (stereo unspecified) here?
Its AC50 is 23.5 µM (active).

With Cc1[nH]n(C(N)=S)c(=O)c1/N=N/c1ccc(Br)cc1 as the molecule, how does the EC50 [11] read?
The EC50 was > 67.5 µM (inactive).

And the EC50 (cells [12])?
Its EC50 is > 67.5 µM (inactive).

For COc1ccc(/C=C/C(=O)Nc2c(C)nn(C)c2C)cc1COc1ccc(Br)cc1, which IC50 [7] is on record?
Its IC50 is 16.1 µM (active).

And the EC50 [8]?
Its EC50 is > 53 µM (inactive).

And the IC50 [9]?
The IC50 was > 20 µM (inactive).

Which AC50 [13] does the source give for CO[C@@H]1CN(C)C(=O)c2cc(NC(=O)NC(C)C)ccc2OC[C@H](C)N(Cc2cncnc2)C[C@H]1C here?
Its AC50 is 472 nM (active).

For N#Cc1c(C#N)c(SSc2c(C#N)c(C#N)c(N)n2-c2ccccc2)n(-c2ccccc2)c1N, which IC50 [14] is on record?
Its IC50 is > 80 µM (inactive).

Which IC50 [15] does the source give for C/C(=N/NC(=O)c1ccc2c(c1)OCO2)c1ccc(NC(=O)c2ccc(F)cc2)cc1 here?
The IC50 was > 67.5 µM (inactive).

And the IC50 (cells [16])?
Its IC50 is > 67.5 µM (inactive).

What does the source list for Cc1ccc(/N=N/c2c(C)[nH]n(C(N)=S)c2=O)cc1C?
IC50 (cells [17]): 10.1 µM (active); CC50 [18]: > 20 µM (active); EC50 [11]: > 67.5 µM (inactive); EC50 (cells [12]): > 67.5 µM (inactive)

For Cc1cc(C)n(CC(=O)N/N=C/c2ccc([N+](=O)[O-])s2)n1, which CC50 [19] is on record?
The CC50 was > 40 µM (active).

What about the IC50 (cells [17]) of the same molecule?
Its IC50 is 48.5 µM (active).

What about the EC50 [20] of the same molecule?
The EC50 was > 60 µM (not active).

What about the EC50 [21] of the same molecule?
The EC50 was 845 nM (active).

What does the source list for O=C1C=CC(=O)N1c1ccc2c(c1)C(NC(=O)C(F)(F)F)c1ccccc1-2 (stereo unspecified)?
IC50 (CHO): 1.91 µM (active); IC50 [14]: > 80 µM (inactive); IC50 (Beta Lactamase): 14.5 µM (inactive)

With COc1ccccc1C#Cc1ccc2c(c1)O[C@@H](CN(C)Cc1cccnc1)[C@H](C)CN([C@@H](C)CO)S2(=O)=O as the molecule, how does the AC50 [10] read?
The AC50 was 2.25 µM (active).
